Measurements taken from paper PMC5882164, “A novel calcimimetic agent, evocalcet (MT-4580/KHK7580), suppresses the parathyroid cell function with little effect on the gastrointestinal tract or CYP isozymes in vivo and in vitro” (PLoS ONE, 2018).
Several values for one entry are separate records, joined by “and”; a condition that tells them apart may be missing. Equal values may be shown once.

Tests used:
[1] = molecular target: T1, CYP2C9 (Homo sapiens, UniProt P11712); test: CYP inhibition assay in human liver microsomes; assay type: in vitro ADME; conditions: no pre-incubation, read-out: IC50 direct inhibition of CYP2C9
T1 construct: from tissue; host or cells: human liver microsomes
Method: (§1) Each CYP substrate was incubated with human liver microsomes in the absence or presence of evocalcet, and the inhibition of evocalcet for each CYP isozyme was measured.

[2] = molecular target: T2, CYP1A2 (Homo sapiens, UniProt P05177); test: CYP inhibition assay in human liver microsomes; assay type: in vitro ADME; conditions: no pre-incubation, read-out: IC50 direct inhibition of CYP1A2
T2 sequence (P05177 1-516): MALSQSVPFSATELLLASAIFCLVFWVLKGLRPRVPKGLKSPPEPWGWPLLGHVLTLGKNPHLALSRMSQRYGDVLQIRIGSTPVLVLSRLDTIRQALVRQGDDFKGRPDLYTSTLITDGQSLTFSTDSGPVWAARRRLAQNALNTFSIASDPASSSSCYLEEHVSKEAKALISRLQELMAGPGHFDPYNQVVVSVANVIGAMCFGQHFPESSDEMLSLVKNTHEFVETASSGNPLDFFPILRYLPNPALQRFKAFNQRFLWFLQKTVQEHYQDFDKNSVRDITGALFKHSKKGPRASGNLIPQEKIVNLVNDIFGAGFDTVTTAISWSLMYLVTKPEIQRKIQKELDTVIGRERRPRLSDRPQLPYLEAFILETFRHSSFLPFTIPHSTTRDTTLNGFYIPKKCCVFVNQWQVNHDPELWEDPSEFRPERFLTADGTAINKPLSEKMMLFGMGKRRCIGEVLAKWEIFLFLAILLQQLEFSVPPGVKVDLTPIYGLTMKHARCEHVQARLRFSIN
Method: as §1

[3] = molecular target: T3, CYP2C19 (Homo sapiens, UniProt P33261); test: CYP inhibition assay in human liver microsomes; assay type: in vitro ADME; conditions: no pre-incubation, read-out: IC50 direct inhibition of CYP2C19
T3 construct: from tissue; host or cells: human liver microsomes
Method: as §1

[4] = Plasma concentrations of evocalcet after repeated oral administration to 5/6 nephrectomized rats; assay type: in vivo, rat; conditions: 5/6 Nx rats
Method: In the single-dose study, blood samples were collected from the tail vein before and at 0.5, 2, 4, 8, 24, 48, and 72 h after the oral administration of vehicle (0.5% methyl cellulose solution) or evocalcet (0.03, 0.1, 0.3, or 1 mg/kg). In the repeated-dose study, vehicle or evocalcet was orally administered to the respective groups once daily for 14 days. Blood samples were obtained from the tail vein before the first administration and after the seventh and last administrations.
The plasma concentrations of evocalcet were determined after single or repeated oral administration in both normal and 5/6 Nx rats. The pharmacokinetic (PK) parameters of the rat plasma concentrations were calculated individually using Phoenix WinNonlin 6.2, a PK analysis software program (Pharsight Corporation, Sunnyvale, CA).

T1 sequence (P11712 whole entry): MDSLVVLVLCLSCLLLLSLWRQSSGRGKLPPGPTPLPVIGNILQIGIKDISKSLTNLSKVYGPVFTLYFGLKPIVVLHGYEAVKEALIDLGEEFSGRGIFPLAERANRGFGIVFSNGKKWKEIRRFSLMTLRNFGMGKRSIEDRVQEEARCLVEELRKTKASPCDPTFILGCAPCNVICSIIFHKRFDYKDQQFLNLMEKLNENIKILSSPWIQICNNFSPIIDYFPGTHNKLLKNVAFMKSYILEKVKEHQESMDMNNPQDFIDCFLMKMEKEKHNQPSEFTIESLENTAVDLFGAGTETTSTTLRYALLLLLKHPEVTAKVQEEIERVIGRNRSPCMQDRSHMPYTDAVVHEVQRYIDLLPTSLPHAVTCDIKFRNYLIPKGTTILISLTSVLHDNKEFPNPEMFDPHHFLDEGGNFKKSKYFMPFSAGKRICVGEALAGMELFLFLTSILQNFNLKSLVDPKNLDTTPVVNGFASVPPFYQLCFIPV
T3 sequence (P33261 whole entry): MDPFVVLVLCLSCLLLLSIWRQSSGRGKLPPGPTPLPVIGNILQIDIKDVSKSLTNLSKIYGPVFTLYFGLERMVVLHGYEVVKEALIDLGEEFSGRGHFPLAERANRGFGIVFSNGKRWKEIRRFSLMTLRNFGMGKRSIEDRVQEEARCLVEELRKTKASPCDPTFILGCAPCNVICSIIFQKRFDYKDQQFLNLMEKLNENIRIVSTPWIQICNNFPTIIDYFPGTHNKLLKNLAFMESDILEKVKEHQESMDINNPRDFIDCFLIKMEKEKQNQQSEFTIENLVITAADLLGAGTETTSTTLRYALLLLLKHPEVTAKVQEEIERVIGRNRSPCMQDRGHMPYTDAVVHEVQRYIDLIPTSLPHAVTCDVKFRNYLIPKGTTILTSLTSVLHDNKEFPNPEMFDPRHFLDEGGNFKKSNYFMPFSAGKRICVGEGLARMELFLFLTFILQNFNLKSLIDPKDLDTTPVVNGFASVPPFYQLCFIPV

Q: Which IC50 [1] does the source give for `C[C@@H](N[C@H]1CCN(c2ccc(CC(=O)O)cc2)C1)c1cccc2ccccc12` [evocalcet] here?
A: The IC50 was greater than 50 µM.

Q: What about the IC50 [2] of the same molecule?
A: The IC50 was greater than 50 µM.

Q: And the IC50 [3]?
A: The IC50 was greater than 50 µM.

Q: What about the Plasma concentration ([4]; repeated oral 0.03 mg/kg, Day 1, 0.5 h, individual rats, 0.03 mg/kg) of the same molecule?
A: Its Plasma concentration is 36.58 ng/mL and 70.85 ng/mL and 82.54 ng/mL and 69.68 ng/mL and 77.69 ng/mL and 41.93 ng/mL and 76.13 ng/mL.

Q: What about the Plasma concentration ([4]; repeated oral 0.03 mg/kg, Day 1, 0.5 h, mean) of the same molecule?
A: The Plasma concentration was 64.96 ng/mL.

Q: And the Plasma concentration ([4]; repeated oral 0.03 mg/kg, Day 1, 24 h, individual rats, 0.03 mg/kg)?
A: The Plasma concentration was 1.641 ng/mL and 1.374 ng/mL and 5.810 ng/mL and 8.969 ng/mL and 1.766 ng/mL and 7.813 ng/mL and 3.603 ng/mL.

Q: What about the Plasma concentration ([4]; repeated oral 0.03 mg/kg, Day 1, 24 h, mean) of the same molecule?
A: The Plasma concentration was 4.696 ng/mL.

Q: And the Plasma concentration ([4]; repeated oral 0.03 mg/kg, Day 7, 24 h, individual rats, 0.03 mg/kg)?
A: Its Plasma concentration is 2.975 ng/mL and 2.144 ng/mL and 14.97 ng/mL and 24.57 ng/mL and 7.857 ng/mL and 2.119 ng/mL and 5.014 ng/mL.

Q: What about the Plasma concentration ([4]; repeated oral 0.03 mg/kg, Day 7, 24 h, mean) of the same molecule?
A: The Plasma concentration was 6.838 ng/mL.

Q: What about the Plasma concentration ([4]; repeated oral 0.03 mg/kg, Day 14, 0.5 h, individual rats, 0.03 mg/kg) of the same molecule?
A: The Plasma concentration was 19.34 ng/mL and 56.51 ng/mL and 53.07 ng/mL and 90.16 ng/mL and 75.39 ng/mL and 23.11 ng/mL and 72.02 ng/mL.

Q: What about the Plasma concentration ([4]; repeated oral 0.03 mg/kg, Day 14, 0.5 h, mean) of the same molecule?
A: Its Plasma concentration is 51.46 ng/mL.

Q: What about the Plasma concentration ([4]; repeated oral 0.03 mg/kg, Day 14, 24 h, individual rats, 0.03 mg/kg) of the same molecule?
A: The Plasma concentration was 3.012 ng/mL and 3.971 ng/mL and 9.010 ng/mL and 15.92 ng/mL and 10.68 ng/mL and 0.6289 ng/mL and 6.008 ng/mL.

Q: What about the Plasma concentration ([4]; repeated oral 0.03 mg/kg, Day 14, 24 h, mean) of the same molecule?
A: The Plasma concentration was 9.081 ng/mL.

Q: What about the Plasma concentration ([4]; repeated oral 0.1 mg/kg, Day 1, 0.5 h, individual rats, 0.1 mg/kg) of the same molecule?
A: Its Plasma concentration is 202.3 ng/mL and 254.1 ng/mL and 209.7 ng/mL and 142.8 ng/mL and 254.2 ng/mL and 143.9 ng/mL and 56.83 ng/mL and 269.5 ng/mL.

Q: And the Plasma concentration ([4]; repeated oral 0.1 mg/kg, Day 1, 24 h, individual rats, 0.1 mg/kg)?
A: Its Plasma concentration is 15.16 ng/mL and 12.10 ng/mL and 8.688 ng/mL and 14.16 ng/mL and 21.79 ng/mL and 16.89 ng/mL and 67.75 ng/mL and 32.61 ng/mL.

Q: And the Plasma concentration ([4]; repeated oral 0.1 mg/kg, Day 7, 24 h, individual rats, 0.1 mg/kg)?
A: Its Plasma concentration is 58.71 ng/mL and 48.75 ng/mL and 30.51 ng/mL and 37.24 ng/mL and 78.95 ng/mL and 69.59 ng/mL and 161.4 ng/mL and 61.03 ng/mL.

Q: What about the Plasma concentration ([4]; repeated oral 0.1 mg/kg, Day 14, 0.5 h, individual rats, 0.1 mg/kg) of the same molecule?
A: The Plasma concentration was 127.4 ng/mL and 39.41 ng/mL and 36.70 ng/mL and 54.83 ng/mL and 93.73 ng/mL and 108.2 ng/mL and 128.5 ng/mL and 174.0 ng/mL.

Q: What about the Plasma concentration ([4]; repeated oral 0.1 mg/kg, Day 14, 24 h, individual rats, 0.1 mg/kg) of the same molecule?
A: The Plasma concentration was 5.812 ng/mL and 5.988 ng/mL and 9.558 ng/mL and 3.499 ng/mL and 32.22 ng/mL and 49.20 ng/mL and 104.7 ng/mL and 11.96 ng/mL.

Q: What about the Plasma concentration ([4]; 0.03 mg/kg oral once daily, Day 1, 0.5 h, mean, n = 12) of the same molecule?
A: Its Plasma concentration is 64.96 ng/mL.

Q: And the Plasma concentration ([4]; 0.03 mg/kg oral once daily, Day 1, 24 h, mean, n = 12)?
A: The Plasma concentration was 4.696 ng/mL.

Q: And the Plasma concentration ([4]; 0.03 mg/kg oral once daily, Day 7, 24 h, mean, n = 12)?
A: The Plasma concentration was 6.838 ng/mL.

Q: And the Plasma concentration ([4]; 0.03 mg/kg oral once daily, Day 14, 0.5 h, mean, n = 12)?
A: The Plasma concentration was 51.46 ng/mL.

Q: What about the Plasma concentration ([4]; 0.03 mg/kg oral once daily, Day 14, 24 h, mean, n = 12) of the same molecule?
A: Its Plasma concentration is 9.081 ng/mL.

Q: What about the Plasma concentration ([4]; 0.1 mg/kg oral once daily, Day 1, 0.5 h, mean, n = 12) of the same molecule?
A: Its Plasma concentration is 204.2 ng/mL.

Q: What about the Plasma concentration ([4]; 0.1 mg/kg oral once daily, Day 1, 24 h, mean, n = 12) of the same molecule?
A: The Plasma concentration was 21.78 ng/mL.

Q: What about the Plasma concentration ([4]; 0.1 mg/kg oral once daily, Day 7, 24 h, mean, n = 12) of the same molecule?
A: Its Plasma concentration is 53.46 ng/mL.

Q: What about the Plasma concentration ([4]; 0.1 mg/kg oral once daily, Day 14, 0.5 h, mean, n = 12) of the same molecule?
A: Its Plasma concentration is 133.8 ng/mL.

Q: What about the Plasma concentration ([4]; 0.1 mg/kg oral once daily, Day 14, 24 h, mean, n = 12) of the same molecule?
A: The Plasma concentration was 29.24 ng/mL.

Q: And the Plasma concentration ([4]; 0.3 mg/kg oral once daily, Day 1, 0.5 h, mean, n = 12)?
A: Its Plasma concentration is 545.5 ng/mL.

Q: What about the Plasma concentration ([4]; 0.3 mg/kg oral once daily, Day 1, 24 h, mean, n = 12) of the same molecule?
A: Its Plasma concentration is 90.48 ng/mL.

Q: And the Plasma concentration ([4]; 0.3 mg/kg oral once daily, Day 7, 24 h, mean, n = 12)?
A: The Plasma concentration was 190.6 ng/mL.

Q: And the Plasma concentration ([4]; 0.3 mg/kg oral once daily, Day 14, 0.5 h, mean, n = 12)?
A: The Plasma concentration was 686.9 ng/mL.

Q: And the Plasma concentration ([4]; 0.3 mg/kg oral once daily, Day 14, 24 h, mean, n = 12)?
A: Its Plasma concentration is 102.1 ng/mL.

Q: And the Plasma concentration ([4]; 1 mg/kg oral once daily, Day 1, 0.5 h, mean, n = 12)?
A: Its Plasma concentration is 1635 ng/mL.

Q: And the Plasma concentration ([4]; 1 mg/kg oral once daily, Day 1, 24 h, mean, n = 12)?
A: Its Plasma concentration is 285.7 ng/mL.

Q: And the Plasma concentration ([4]; 1 mg/kg oral once daily, Day 7, 24 h, mean, n = 12)?
A: The Plasma concentration was 557.2 ng/mL.

Q: What about the Plasma concentration ([4]; 1 mg/kg oral once daily, Day 14, 0.5 h, mean, n = 12) of the same molecule?
A: The Plasma concentration was 1769 ng/mL.

Q: What about the Plasma concentration ([4]; 1 mg/kg oral once daily, Day 14, 24 h, mean, n = 12) of the same molecule?
A: The Plasma concentration was 490.6 ng/mL.
